Experimental data published in patent US11897867B2, “6-phenyl-4,5-dihydropyridazin-3(2H)-one derivatives as PDE3A and PDE3B inhibitors for treating cancer” (Bayer Aktiengesellschaft, priority 2017, dated 2024).

Key:
[1] = tested on: SK-MEL-3 (melanoma); assay: Cell proliferation measurement (Cell Titer Glo), SK-MEL-3; assay type: cell-based; conditions: Homo sapiens, SK-MEL3, SK-MEL-3 cells, 72 h treatment, read-out: Anti-proliferation IC50 SK-MEL-3 (melanoma)
Method in brief: (§1)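 Cells (1000/well; 500 for HeLa) plated overnight at 37 °C, then exposed to a ≥10-point compound dilution series for 72 h at 37 °C, DMSO 0.3% final as vehicle. Viability read by CellTiter-Glo luminescence; IC50 from 4-parameter fit against untreated wells.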

[2] = biological target: T1, human full length PDE3A (Homo sapiens, UniProt Q14432); assay: PDE3A enzyme inhibition (3H-cAMP Scintillation Proximity Assay); assay type: biochemical; conditions: PDE3A cell extract from Sf9 cells, 60 min room temperature; read-out: Target IC50 PDE3A IC50
T1 construct: Sf9 cells overexpressing human full length PDE3A; purchased SB Drug Discovery, UK; host or cells: Sf9 cells (cell extract)
Method in brief: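 Sf9 cell extract overexpressing human full-length PDE3A, diluted for linear kinetics (<70% substrate used), in 50 mM Tris/HCl pH 7.5, 8.3 mM MgCl2, 1.7 mM EDTA, 0.2% BSA. [8-3H]cAMP substrate, 60 min at room temperature, yttrium SPA bead read-out; IC50 from sigmoidal curves of % activity.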

[3] = biological target: T2, human full length PDE3B (Homo sapiens, UniProt Q13370); assay: PDE3B enzyme inhibition (3H-cAMP Scintillation Proximity Assay); assay type: biochemical; conditions: PDE3B cell extract from Sf9 cells, 60 min room temperature; read-out: Target IC50 PDE3B IC50
T2 construct: Sf9 cells overexpressing human full length PDE3B; purchased SB Drug Discovery, UK; host or cells: Sf9 cells (cell extract)
Method in brief: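 SPA with Sf9 cell extract overexpressing human full-length PDE3B, diluted for linear kinetics and <70% substrate turnover, in 50 mM Tris/HCl pH 7.5, 8.3 mM MgCl2, 1.7 mM EDTA, 0.2% BSA. [8-3H]cAMP substrate, 60 min at room temperature, stopped with yttrium SPA beads. IC50 from sigmoidal fit of % activity vs log concentration.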

[4] = tested on: HeLa cells (cervical cancer); assay: Cell proliferation measurement (Cell Titer Glo), HeLa; assay type: cell-based; conditions: Homo sapiens, 72 h treatment, read-out: Anti-proliferation IC50 HeLa (Cervical cancer)
Method in brief: as §1

[5] = tested on: NCI-H1734; assay: Cell proliferation measurement (Cell Titer Glo), NCI-H1734; assay type: cell-based; conditions: Homo sapiens, NCI-H1734 cells, 72 h treatment, read-out: Anti-proliferation IC50 NCI-H1734
Experimental: (§2) The antiproliferative activity of the compounds of the general formula (I) was examined in vitro in human cancer cells. For this purpose, 1000 cells (or 500 HeLa cells) were plated in 384-well plates with appropriate growth medium and incubated at 37° C. overnight. After 24 h, the cells on the test plate were treated with the compounds of the general formula (I) as and incubated at 37° C. for 72 h. The compounds were added to the cells by means of an HP D300 digital dispenser in a 10 (or more)-step dilution series. As control, the cells were treated with vehicle (DMSO at 0.3% final concentration). After 72 h, the cells were treated with 20 μl/well of 50% CTG solution in PBS (Promega Cell Titer Glo (catalogue #G755B and G756B)) and incubated at room temperature for 10 min, and luminescence was measured by means of a VICTOR V (Perkin Elmer), in order to determine cell viability at the end of treatment. The percentage effect on cell growth and the IC50 derived therefrom were determined for each test substance using the values from untreated wells (=percent viability). The IC50 values were calculated using a 4-parameter fit.

[6] = tested on: H4; assay: Cell proliferation measurement (Cell Titer Glo), H4; assay type: cell-based; conditions: Homo sapiens, H4 cells, 72 h treatment, read-out: Anti-proliferation IC50 H4
Experimental: as §2

[7] = tested on: IGR-37 (melanoma); assay: Cell proliferation measurement (Cell Titer Glo), IGR-37; assay type: cell-based; conditions: Homo sapiens, IGR-37 cells, 72 h treatment, read-out: Anti-proliferation IC50 IGR-37 (melanoma)
Experimental: as §2

T2 sequence (Q13370 whole entry): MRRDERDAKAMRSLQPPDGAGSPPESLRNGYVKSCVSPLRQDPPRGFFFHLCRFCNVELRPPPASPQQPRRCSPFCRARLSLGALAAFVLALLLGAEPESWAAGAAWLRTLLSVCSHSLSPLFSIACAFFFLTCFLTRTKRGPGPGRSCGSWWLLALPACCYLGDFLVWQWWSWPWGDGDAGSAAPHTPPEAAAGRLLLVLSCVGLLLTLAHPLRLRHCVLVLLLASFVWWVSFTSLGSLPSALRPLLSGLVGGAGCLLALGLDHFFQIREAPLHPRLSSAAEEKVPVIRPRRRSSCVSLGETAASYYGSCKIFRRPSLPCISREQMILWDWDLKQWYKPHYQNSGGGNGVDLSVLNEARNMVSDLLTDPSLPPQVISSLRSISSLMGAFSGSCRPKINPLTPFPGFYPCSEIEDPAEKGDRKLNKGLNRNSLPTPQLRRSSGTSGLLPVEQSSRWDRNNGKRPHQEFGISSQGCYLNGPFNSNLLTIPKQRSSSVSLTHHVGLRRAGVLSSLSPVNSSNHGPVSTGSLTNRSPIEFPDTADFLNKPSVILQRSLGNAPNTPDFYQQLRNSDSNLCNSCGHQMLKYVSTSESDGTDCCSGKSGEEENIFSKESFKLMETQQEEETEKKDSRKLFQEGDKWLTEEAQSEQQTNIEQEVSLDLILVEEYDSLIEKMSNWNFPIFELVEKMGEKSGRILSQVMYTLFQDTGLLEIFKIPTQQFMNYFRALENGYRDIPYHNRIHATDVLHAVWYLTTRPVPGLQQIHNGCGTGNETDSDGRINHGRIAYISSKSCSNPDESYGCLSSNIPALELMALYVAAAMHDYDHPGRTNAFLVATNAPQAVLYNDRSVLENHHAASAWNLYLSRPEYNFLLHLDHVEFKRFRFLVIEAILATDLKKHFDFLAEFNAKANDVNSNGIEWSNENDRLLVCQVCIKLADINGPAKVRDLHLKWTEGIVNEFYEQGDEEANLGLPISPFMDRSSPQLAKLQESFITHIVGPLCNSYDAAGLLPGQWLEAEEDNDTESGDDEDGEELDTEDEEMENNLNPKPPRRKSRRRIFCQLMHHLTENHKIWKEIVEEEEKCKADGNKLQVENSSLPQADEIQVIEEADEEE
T1 sequence (Q14432 whole entry): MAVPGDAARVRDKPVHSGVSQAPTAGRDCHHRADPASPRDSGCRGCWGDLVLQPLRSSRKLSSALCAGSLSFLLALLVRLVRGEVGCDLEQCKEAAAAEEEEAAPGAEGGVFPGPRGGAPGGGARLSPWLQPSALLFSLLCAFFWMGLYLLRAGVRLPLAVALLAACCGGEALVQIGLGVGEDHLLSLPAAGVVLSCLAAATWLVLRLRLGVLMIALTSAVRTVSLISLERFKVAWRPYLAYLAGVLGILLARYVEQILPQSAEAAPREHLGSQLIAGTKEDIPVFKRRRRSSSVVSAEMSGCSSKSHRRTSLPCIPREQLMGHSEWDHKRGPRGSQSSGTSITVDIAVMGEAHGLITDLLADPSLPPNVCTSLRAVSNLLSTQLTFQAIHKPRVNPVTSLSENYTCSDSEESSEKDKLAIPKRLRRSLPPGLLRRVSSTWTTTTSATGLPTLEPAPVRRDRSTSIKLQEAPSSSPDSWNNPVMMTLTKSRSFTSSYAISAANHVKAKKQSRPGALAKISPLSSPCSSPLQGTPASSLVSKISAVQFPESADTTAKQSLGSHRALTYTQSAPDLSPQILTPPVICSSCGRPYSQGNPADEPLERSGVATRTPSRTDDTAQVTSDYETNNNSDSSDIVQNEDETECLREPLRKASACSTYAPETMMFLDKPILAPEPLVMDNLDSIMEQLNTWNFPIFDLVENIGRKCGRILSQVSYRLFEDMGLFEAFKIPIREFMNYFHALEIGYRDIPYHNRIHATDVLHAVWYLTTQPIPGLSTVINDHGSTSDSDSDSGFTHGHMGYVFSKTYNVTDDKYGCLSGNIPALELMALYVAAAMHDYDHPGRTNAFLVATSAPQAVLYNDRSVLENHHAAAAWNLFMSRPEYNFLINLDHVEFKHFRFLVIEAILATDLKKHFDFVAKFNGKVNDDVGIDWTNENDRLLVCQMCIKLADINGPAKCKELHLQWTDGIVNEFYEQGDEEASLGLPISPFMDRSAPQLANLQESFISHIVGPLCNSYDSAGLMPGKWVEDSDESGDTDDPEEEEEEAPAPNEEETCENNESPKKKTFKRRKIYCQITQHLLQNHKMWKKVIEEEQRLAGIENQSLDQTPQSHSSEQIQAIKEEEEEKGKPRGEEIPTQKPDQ

SMILES | IC50 [1] | IC50 [2] | IC50 [3] | IC50 [4] | IC50 [5] | IC50 [6] | IC50 [7]
O=C1CCC(c2cc(F)c(N3CCC(F)(F)C3)c(F)c2)=NN1 [Example 13, 6-[4-(3,3-Difluoropyrrolidin-1-yl)-3,5-difluorophenyl]-4,5-dihydropyridazin-3(2H)-one] | 13.8 nM | 310 nM | 250 nM | 5.59 nM | 32 nM | 41.1 nM | 
O=C1CCC(c2ccc(Cl)c(Cl)c2)=NN1 [Example 125, 6-(3,4-Dichlorophenyl)-4,5-dihydropyridazin-3(2H)-one] | 36.1 nM | 625 nM | 335 nM | 16 nM |  |  | 55.1 nM
O=C1CCC(c2ccc(-c3cnn(C(F)F)c3)c(C(F)(F)F)c2)=NN1 [Example 127, 6-{4-[1-(difluoromethyl)-1H-pyrazol-4-yl]-3-(trifluoromethyl)phenyl}-4,5-dihydropyridazin-3(2H)-one] | 3.64 nM | 73 nM | 77 nM | 1.78 nM |  |  | 5.37 nM
O=C1CCC(c2ccc(N3CCOCC3)cc2)=NN1 [Example 123, 6-[4-(morpholin-4-yl)phenyl]-4,5-dihydropyridazin-3(2H)-one] | > 100 nM |  | > 1000 nM | 79.8 nM |  |  | 276 nM
O=C1CCC(c2cc(F)c(N3CC4CC4C3)c(F)c2)=NN1 (stereo not shown) [Example 14, 6-[4-(3-Azabicyclo[3.1.0]hex-3-yl)-3,5-difluorophenyl]-4,5-dihydropyridazin-3(2H)-one] | 5.84 nM | 180 nM | 77 nM | 2.16 nM | 18.8 nM | 30.9 nM | 
O=C1CCC(c2cc(Cl)c(N3CCOCC3)c(Cl)c2)=NN1 [Example 124, 6-[3,5-dichloro-4-(morpholin-4-yl)phenyl]-4,5-dihydropyridazin-3(2H)-one] | 16.8 nM | 59 nM | 73 nM | 6.9 nM |  |  | 32.9 nM
COCCNc1ccc(C2=NNC(=O)CC2)cc1C(F)(F)F [Example 129, 6-{4-[(2-methoxyethyl)amino]-3-(trifluoromethyl)phenyl}-4,5-dihydropyridazin-3(2H)-one] | 4.58 nM | 120 nM | 210 nM | 2.14 nM |  |  | 4.77 nM
O=C1CCC(c2ccc(-c3ccc(F)cc3)c(C(F)(F)F)c2)=NN1 [Example 128, 6-[4′-fluoro-2-(trifluoromethyl)[1,1′-biphenyl]-4-yl]-4,5-dihydropyridazin-3(2H)-one] | 15.2 nM | 240 nM | 210 nM | 7.79 nM |  |  | 34.8 nM
O=C1CCC(c2ccc(-n3ccc(C(F)(F)F)n3)c(F)c2)=NN1 [Example 131, 6-{3-fluoro-4-[3-(trifluoromethyl)-1H-pyrazol-1-yl]phenyl}-4,5-dihydropyridazin-3(2H)-one] | 36.2 nM | 620 nM | 385 nM | 17.7 nM |  |  | 43.8 nM
O=C1CCC(c2ccc(N3CCC(F)(F)C3)c(C(F)(F)F)c2)=NN1 [Example 22, 6-[4-(3,3-Difluoropyrrolidin-1-yl)-3-(trifluoromethyl)phenyl]-4,5-dihydropyridazin-3(2H)-one] | 718 nM | 159 nM | 148 nM | 5.2 nM |  |  | 8.82 nM
O=C1CCC(c2ccc(NCC(O)C(F)(F)F)c(C(F)(F)F)c2)=NN1 (racemic) [Example 130, 6-[4-{[3,3,3-trifluoro-2-hydroxypropyl]amino}-3-(trifluoromethyl)phenyl]-4,5-dihydropyridazin-3(2H)-one (racemic)] | 8.73 nM | 89 nM | 86 nM | 4.32 nM |  |  | 9.03 nM
Cc1cc(C2=NNC(=O)CC2)ccc1-c1ccc(F)cc1 [Example 3, 6-(4′-Fluoro-2-methylbiphenyl-4-yl)-4,5-dihydropyridazin-3(2H)-one] | 8.42 nM | 190 nM | 150 nM | 4.59 nM | 27.7 nM | 36.6 nM | 
Cc1ccc(-c2ccc(C3=NNC(=O)CC3)cc2C)cc1F [Example 107, 6-(3′-fluoro-2,4′-dimethyl[1,1′-biphenyl]-4-yl)-4,5-dihydropyridazin-3(2H)-one] | 52.4 nM | 270 nM | 190 nM | 9.26 nM |  |  | 
Nc1ccc(-c2ccc(C3=NNC(=O)CC3)cc2F)cc1 [Example 76, 6-(4′-amino-2-fluoro[1,1′-biphenyl]-4-yl)-4,5-dihydropyridazin-3(2H)-one] | 8.73 nM | 90 nM | 89 nM | 5.52 nM |  |  | 
